Structures can show the parent of a compound that is named as a salt.
Key:
[1] = test system: tetracycline-susceptible E. coli; assay: Resumption of bacterial growth after washing out the antibiotic (reversibility of binding); format: cell-based; conditions: 30 minutes at growth inhibitory concentrations, then centrifugation and fresh medium
Experimental: The antibiotics are added to exponentially growing cultures of tetracycline-susceptible E. coli at growth inhibitory concentrations. After 30 minutes, excess antibiotic is removed from the bacteria by centrifugation and the organism is resuspended in fresh growth medium. The ability of bacteria to resume growth is monitored. […] This reflects the different binding characteristics of the drugs.

[2] = test system: S. aureus UBMS 88-5 (tetM); assay: MIC, agar dilution; format: cell-based; conditions: S. aureus UBMS 88-5 TetM; Table IA; unit assumed
[3] = test system: S. aureus UBMS 88-4 (Sensitive); assay: MIC, agar dilution; format: cell-based; conditions: S. aureus UBMS 88-4; Table IA; unit assumed
[4] = test system: S. aureus UBMS 90-1 (tetM); assay: MIC, agar dilution; format: cell-based; conditions: S. aureus UBMS 90-1 TetM; Table IA; unit assumed
[5] = test system: S. aureus UBMS 90-2 (tetM); assay: MIC, agar dilution; format: cell-based; conditions: S. aureus UBMS 90-2 TetM; Table IA; unit assumed
[6] = test system: S. aureus UBMS 90-3 (Sensitive); assay: MIC, agar dilution; format: cell-based; conditions: S. aureus UBMS 90-3; Table IA; unit assumed
[7] = test system: S. aureus UBMS 88-7 (tetK); assay: MIC, agar dilution; format: cell-based; conditions: S. aureus UBMS 88-7 TetK; Table IA; unit assumed
[8] = test system: S. aureus IVES 2943 (meth. resistant); assay: MIC, agar dilution; format: cell-based; conditions: S. aureus IVES 2943; Table IA; unit assumed
[9] = test system: S. aureus IVES 1983 (meth. resistant); assay: MIC, agar dilution; format: cell-based; conditions: S. aureus IVES 1983; Table IA; unit assumed
[10] = test system: S. aureus ATCC 29213 (Sensitive); assay: MIC, agar dilution; format: cell-based; conditions: S. aureus ATCC 29213; Table IA; unit assumed
[11] = test system: S. aureus Smith (Sensitive); assay: MIC, agar dilution; format: cell-based; conditions: S. aureus SMITH (MP); Table IA; unit assumed
[12] = test system: S. haemolyticus AVAH 88-3; assay: MIC, agar dilution; format: cell-based; conditions: S. hemolyticus AVHAH 88-3; Table IA; unit assumed
[13] = test system: E. faecalis 12201; assay: MIC, agar dilution; format: cell-based; conditions: Enterococcus 12201; Table IA; unit assumed
[14] = test system: E. faecalis ATCC 29212; assay: MIC, agar dilution; format: cell-based; conditions: E. faecalis ATCC 29212; Table IA; unit assumed
[15] = test system: E. coli UBMS 88-1 (tetB); assay: MIC, agar dilution; format: cell-based; conditions: E. coli UBMS 88-1 TetB; Table IA; unit assumed
[16] = test system: E. coli UBMS 89-1 (tetM); assay: MIC, agar dilution; format: cell-based; conditions: E. coli UBMS 89-1 TetM; Table IA; unit assumed
[17] = test system: E. coli UBMS 89-2 (Sensitive); assay: MIC, agar dilution; format: cell-based; conditions: E. coli UBMS 89-2 Tet Sens.; Table IA; unit assumed
[18] = test system: E. coli ATCC 25922; assay: MIC, agar dilution; format: cell-based; conditions: E. coli ATCC 25922; Table IA; unit assumed
[19] = test system: E. coli UBMS 90-4 (tetM); assay: MIC, agar dilution; format: cell-based; conditions: E. coli UBMS 90-4 TetM; Table IA; unit assumed
[20] = test system: S. aureus SMITH (sens); assay: In vivo antibacterial evaluation, acute lethal infection in mice; conditions: Oral
Excerpt: In Vivo Antibacterial Evaluation (Table VII)

[21] = test system: E. coli MC4100 Tet sens.; assay: MIC, agar dilution (Table IA); format: cell-based; conditions: unit assumed
[22] = test system: E. coli MC4100 TetB; assay: MIC, agar dilution (Table IA); format: cell-based; conditions: unit assumed
[23] = test system: E. coli PRP1 TetA; assay: MIC, agar dilution (Table IA); format: cell-based; conditions: unit assumed
[24] = test system: E. coli J3272 TetC; assay: MIC, agar dilution (Table IA); format: cell-based; conditions: unit assumed
[25] = test system: E. coli J2175; assay: MIC, agar dilution (Table IA); format: cell-based; conditions: unit assumed
[26] = test system: E. coli BAJ9003; assay: MIC, agar dilution (Table IA); format: cell-based; conditions: unit assumed
[27] = test system: E. coli UBMS 90-5; assay: MIC, agar dilution (Table IA); format: cell-based; conditions: unit assumed
[28] = test system: E. coli #311 (MP); assay: MIC, agar dilution (Table IA); format: cell-based; conditions: unit assumed
[29] = test system: E. coli J3272 TetD; assay: MIC, agar dilution (Table IA); format: cell-based; conditions: unit assumed
[30] = test system: S. mariescens FDOR 8733; assay: MIC, agar dilution (Table IA); format: cell-based; conditions: unit assumed
[31] = test system: X. maltophilia NEMC 87210; assay: MIC, agar dilution (Table IA); format: cell-based; conditions: unit assumed
[32] = test system: Ps. acruginosa ATCC 27853; assay: MIC, agar dilution (Table IA); format: cell-based; conditions: unit assumed
[33] = test system: S. aureus NEMC 8769/89-4; assay: MIC, agar dilution (Table IA); format: cell-based; conditions: unit assumed
[34] = test system: S. aureus ROSE (MP); assay: MIC, agar dilution (Table IA); format: cell-based; conditions: unit assumed
[35] = test system: S. aureus SMITH (sens); assay: In vivo antibacterial evaluation, acute lethal infection in mice; conditions: Intraveneous
[36] = test system: E. coli J3272 Tet sens.; assay: MIC, agar dilution (Table IA); format: cell-based; conditions: unit assumed
[37] = test system: Wild Type S30 extract, E. coli strain MRE600 (tetracycline sensitive); assay: E. coli in vitro transcription and protein translation, 35S-methionine incorporation (Table VIII)
[38] = test system: TetM S30 extract, derivative of E. coli MRE600 containing the tetM determinant; assay: as above

Molecule | Antibacterial activity (MIC) [2] [µg/mL] | Antibacterial activity (MIC) [3] [µg/mL] | Antibacterial activity (MIC) [4] [µg/mL] | Antibacterial activity (MIC) [5] [µg/mL] | Antibacterial activity (MIC) [6] [µg/mL] | Antibacterial activity (MIC) [7] [µg/mL] | Antibacterial activity (MIC) [8] [µg/mL] | Antibacterial activity (MIC) [9] [µg/mL] | Antibacterial activity (MIC) [10] [µg/mL] | Antibacterial activity (MIC) [11] [µg/mL] | Antibacterial activity (MIC) [12] [µg/mL] | Antibacterial activity (MIC) [13] [µg/mL] | Antibacterial activity (MIC) [14] [µg/mL] | Antibacterial activity (MIC) [15] [µg/mL] | Antibacterial activity (MIC) [16] [µg/mL] | Antibacterial activity (MIC) [17] [µg/mL] | Antibacterial activity (MIC) [18] [µg/mL] | Antibacterial activity (MIC) [19] [µg/mL] | ED50 [20] [mg/kg] | Antibacterial activity (MIC) [22] [µg/mL] | other results
CN(C)c1cc(NC=O)c(O)c2c1CC1CC3C(N(C)C)C(O)=C(C(N)=O)C(=O)C3(O)C(O)=C1C2=O (centres unmarked) | – | – | – | – | – | – | – | – | – | – | – | – | – | – | – | – | – | – | – | – | ability of bacteria to resume growth after excess antibiotic is removed by washing [1]: bacterial growth resumed when the compound was removed
CCCCCCNCC(=O)Nc1cc(N(C)C)c2c(c1O)C(=O)C1=C(O)[C@]3(O)C(=O)C(C(N)=O)=C(O)[C@@H](N(C)C)C3CC1C2 (stereo partly drawn) [BBB, [4S-(4alpha,12aalpha)]-4,7-Bis(dimethylamino)-9-[[(hexylamino)acetyl]amino]-1,4,4a,5,5a,6,11,12a-octahydro-3,10,12,12a-tetrahydroxy-1,11-dioxo-2-naphthacenecarboxamide dihydrochloride] | 0.5 | 0.25 | 0.25 | 0.25 | 0.06 | 2 | 4 | 4 | 0.25 | 0.12 | 0.5 | 0.25 | 0.12 | 0.5 | 0.25 | 0.25 | 0.12 | 0.25 | 4 to 8 | 0.5 | Antibacterial activity (MIC) [21]: 0.25 µg/mL; Antibacterial activity (MIC) [23]: 0.5 µg/mL; Antibacterial activity (MIC) [24]: 0.5 µg/mL; Antibacterial activity (MIC) [25]: 0.25 µg/mL; Antibacterial activity (MIC) [26]: 0.06 µg/mL; Antibacterial activity (MIC) [27]: 0.25 µg/mL; Antibacterial activity (MIC) [28]: 0.5 µg/mL; Antibacterial activity (MIC) [29]: 0.12 µg/mL; Antibacterial activity (MIC) [30]: 4 µg/mL; Antibacterial activity (MIC) [31]: 4 µg/mL; Antibacterial activity (MIC) [32]: 16 µg/mL; Antibacterial activity (MIC) [33]: 0.06 µg/mL; Antibacterial activity (MIC) [34]: 16 µg/mL; ED50 [35]: 1.8 mg/kg
CCCNCC(=O)Nc1cc(N(C)C)c2c(c1O)C(=O)C1=C(O)C3(O)C(=O)C(C(N)=O)=C(O)C(N(C)C)C3CC1C2.Cl.Cl (stereo not drawn) [WW, [4S-(4alpha,12aalpha)]-4,7-bis(dimethylamino)-1,4,4a,5,5a,6,11,12a-octahydro-3,10,12,12a-tetra-hydroxy-1,11-dioxo-9-[[(propylamino)acetyl]amino]-2-naphthacenecarboxamide dihydrochloride] | 0.25 | 0.25 | 0.12 | 0.25 | 0.12 | 1 | 2 | 2 | 0.25 | 0.12 | 0.25 | 0.12 | 0.25 | 0.25 | 0.25 | 0.25 | 0.25 | 0.25 | >16 | 0.25 | Antibacterial activity (MIC) [36]: 0.25 µg/mL; Antibacterial activity (MIC) [23]: 1 µg/mL; Antibacterial activity (MIC) [24]: 0.25 µg/mL; Antibacterial activity (MIC) [25]: 0.25 µg/mL; Antibacterial activity (MIC) [26]: 0.06 µg/mL; Antibacterial activity (MIC) [27]: 0.25 µg/mL; Antibacterial activity (MIC) [28]: 0.25 µg/mL; Antibacterial activity (MIC) [29]: 0.12 µg/mL; Antibacterial activity (MIC) [30]: 2 µg/mL; Antibacterial activity (MIC) [31]: 0.5 µg/mL; Antibacterial activity (MIC) [32]: 8 µg/mL; Antibacterial activity (MIC) [33]: 0.06 µg/mL; Antibacterial activity (MIC) [34]: 2 µg/mL; ED50 [35]: 0.82 mg/kg; % INHIBITION Wild Type S30 ([37]; 0.06 mg/ml): 93%; % INHIBITION Wild Type S30 ([37]; 0.2 mg/ml): 99%; % INHIBITION Wild Type S30 ([37]; 1.0 mg/ml): 99%; % INHIBITION TetM S30 ([38]; 0.06 mg/ml): 88%; % INHIBITION TetM S30 ([38]; 0.2 mg/ml): 97%; % INHIBITION TetM S30 ([38]; 1.0 mg/ml): 98%
CC(C(=O)Nc1cc(N(C)C)c2c(c1O)C(=O)C1=C(O)[C@]3(O)C(=O)C(C(N)=O)=C(O)[C@@H](N(C)C)C3CC1C2)N(C)C.Cl.Cl (some centres unmarked) [XX] | 0.25 | 0.25 | 0.25 | 0.25 | 0.25 | 1 | 1 | 1 | 0.25 | 0.25 | 0.5 | 0.12 | 0.12 | 0.5 | 0.12 | 0.5 | 0.5 | 0.5 | 8 to 16 | 1 | Antibacterial activity (MIC) [36]: 0.5 µg/mL; Antibacterial activity (MIC) [23]: 1 µg/mL; Antibacterial activity (MIC) [24]: 1 µg/mL; Antibacterial activity (MIC) [25]: 0.5 µg/mL; Antibacterial activity (MIC) [26]: 0.06 µg/mL; Antibacterial activity (MIC) [27]: 0.5 µg/mL; Antibacterial activity (MIC) [28]: 0.5 µg/mL; Antibacterial activity (MIC) [29]: 0.25 µg/mL; Antibacterial activity (MIC) [30]: 4 µg/mL; Antibacterial activity (MIC) [31]: 0.5 µg/mL; Antibacterial activity (MIC) [32]: 32 µg/mL; Antibacterial activity (MIC) [33]: 0.12 µg/mL; Antibacterial activity (MIC) [34]: 1 µg/mL; ED50 [35]: 0.5 to 1 mg/kg; % INHIBITION Wild Type S30 ([37]; 0.06 mg/ml): 85%; % INHIBITION Wild Type S30 ([37]; 0.2 mg/ml): 96%; % INHIBITION Wild Type S30 ([37]; 1.0 mg/ml): 98%; % INHIBITION TetM S30 ([38]; 0.06 mg/ml): 78%; % INHIBITION TetM S30 ([38]; 0.2 mg/ml): 89%; % INHIBITION TetM S30 ([38]; 1.0 mg/ml): 97%
polymyxin [reference compound] | – | – | – | – | – | – | – | – | – | – | – | – | – | – | – | – | – | – | – | – | ability of bacteria to resume growth after excess antibiotic is removed by washing [1]: continues to prevent bacterial growth even when excess antibiotic is removed

From patent publication USRE40086E1, “Method for treating bacterial infection with novel 7-substituted-9-substituted amino 6-demethyl-6-deoxytetracyclines” (Wyeth Holdings Corporation, priority 1991, dated 2008)
